Data: article PMC12013189, “Phospho-regulated tethering of focal adhesion kinase to vinculin links force transduction to focal adhesion signaling” (Cell Communication and Signaling : CCS, 2025)

Columns and labels:
[1] = test system: GST-Vin-T and His-FAT-H14; assay: GST-pulldown of His-FAT with GST-Vin-T and LD2/4; type: binding, human; conditions: 30 µM GST-Vin-T, 10 µM LD2/4, 30 µM His-FAT, western blot anti-His
Description: 30 µM GST-Vin-T, 10 µM LD2/4 and 30 µM His-FAT proteins were incubated with glutathione sepharose beads for 1 h, centrifuged for 1 min at […] and washed 3x with 20 mM Tris pH 7.5, 150 mM NaCl, 0.1% Nonidet P40. Proteins co-sedimented with beads were resuspended in SDS Laemmli buffer, heated to 96 °C for 5 min and subjected to SDS-PAGE and western blotting. His-FAT proteins (WT or mutants) were detected using a primary mouse anti-His antibody (Proteintech) and a secondary HRP conjugated goat anti-mouse antibody (Merck).

[2] = molecular target: T1, FAT domain of FAK (hFAK904-1052 WT) (Homo sapiens, UniProt Q05397); assay: Fluorescence anisotropy binding of FITC LD peptides to FAT-WT; conditions: versus single LD motifs
T1 construct: Expression plasmids for FAT (hFAK904-1052 WT and mutants H14, H23 and H14-23); 6xHis (TEV cleavable) (N, cleaved yes); made in house; host or cells: E. coli BL21(DE3)
T1 sequence (Q05397 904-1052): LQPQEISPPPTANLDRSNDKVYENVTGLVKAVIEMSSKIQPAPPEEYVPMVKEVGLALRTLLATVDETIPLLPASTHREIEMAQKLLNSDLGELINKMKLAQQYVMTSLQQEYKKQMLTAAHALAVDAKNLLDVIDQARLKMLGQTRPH
Text: Expression plasmids for FAT (hFAK904-1052 WT and mutants H14, H23 and H14-23), Vin-FL (hVinculin1-1066) and Vin-T (hVinculin891-1066) were ordered from GenScript in the pET28(+) vector, adding a TEV cleavable N-terminal 6xHis tag to the expressed proteins. Mutant FAT-H14 contains the mutations I936A, H1025A, K1032A; FAT-H23 contains the mutations K955A, R962A, I998A and FAT-14-23 contains the combined mutations I936A, K955A, R962A, I998A, H1025A, K1032A. All plasmids were introduced into E.coli strain BL21(DE3) for expression. Cells were grown in LB media, induced with 1 mM IPTG at an OD (600 nm) of 0.6 and grown over night at 20 °C. Cells were pelleted at 6000 rpm and resuspended in 20 mM Tris pH8, 200 mM NaCl, 5% Glycerol, 10 mM imidazole, 2mM TCEP, 1mM PMSF supplemented with cOmplete protein inhibitor cocktail (Roche). Cells were lysed by sonication and insoluble components removed by centrifugation at 40 K for 1 h at 4 °C. Soluble lysates were cleared through 0.45 μm filters and loaded onto His-Trap affinity columns (Cytiva), washed with step gradients up to 30 mM imidazole and eluted with a gradient up to 500 mM imidazole. Peak-fractions were digested over night with TEV protease (molar ratio ~ 1: 20) at 4 °C. Proteins were diluted to 50 mM NaCl and loaded onto a Source 15Q column, washed with 20 mM Tris pH8, 50 mM NaCl, 5% Glycerol, 1mM TCEP and eluted with a gradient up to 1 M NaCl. Peak fractions were mixed with 1 ml of Ni-NTA beads to remove TEV and uncleaved protein, adding 10 mM imidazole to prevent non-specific binding. The flow-through was concentrated, loaded onto a Superdex200 16/60 column and eluted in 20 mM Tris pH8, 200 mM NaCl, 5% Glycerol, 2mM TCEP. Peak fractions were concentrated, aliquots flash frozen in LN2 and stored at -80 °C.
(§1) Binding curves were determined in a total of 20 µl in black 384 well plates, by titrating protein concentrations (typically up to 50 µM) at a fixed concentration of 25 nM FITC labelled LD peptides (Apeptide Co. Ltd) in 20 mM Tris pH7.5, 150 mM NaCl, 1mM TCEP. Anisotropy measurements were preformed at 22 °C on a Spark® Multimode microplate reader (Tecan) with polarizers, at an excitation wavelength of 485 nm and an emission wavelength of 535 nm (20 nm bandwidth). KD values were extracted by fitting a one-site binding model using the GraphPad Prism software, using the equation: Y = Bmax*X/(KD + X), where Y is the measured anisotropy, X the protein concentration and Bmax the maximal anisotropy value at binding saturation.

FAT-WT = assay: svAUC peak integration, FAT-WT+LD2/4; type: binding, human
Description: (§2) For svAUC experiments, FAT and Vin-T proteins at 30 µM were incubated with 10 µM LD2/4 peptide in 20 mM Tris pH 7.5, 200 mM NaCl, 5% Glycerol and 1 mM TCEP. svAUC was performed at 20 °C at 48,000 rpm (Vin-T + LD1 + LD2, Fig. S2) or 58,000 rpm (FAT + LD2/4 + Vin-T; Fig. 3) in a XL-I analytical ultracentrifuge (Beckman-Coulter Inc.) equipped with both UV-VIS absorbance and Raleigh interference detection systems, using an An-50Ti rotor, and Epon-charcoal standard double-sector centerpieces (optical pathlength 12 mm or 4 mm for measurements at 100 µM shown in Fig. S2). Sedimentation profiles were recorded at 280 nm. Differential sedimentation coefficient distributions were calculated by least-squares boundary modelling of sedimentation velocity data using the continuous distribution c(s) Lamm equation model as implemented by SEDFIT [46]. These s values were corrected to standard conditions (water, 20 °C, and infinite dilution) using the program SEDNTERP [32] to get the corresponding standard s values (s20,w).

FAT-WT and Vin-T = assay: svAUC peak integration, FAT-WT+LD2/4+Vin-T; type: binding, human
Description: as §2

FAT-H14 = assay: svAUC peak integration, FAT-H14+LD2/4; type: binding, human; conditions: 30 µM FAT-H14 + 10 µM LD2/4
Description: as §2

FAT-H23 and Vin-T = assay: svAUC peak integration, FAT-H23+LD2/4+Vin-T; type: binding, human; conditions: 30 µM FAT-H23 + 10 µM LD2/4 + 30 µM Vin-T
Description: as §2

FAT-H23 = assay: svAUC peak integration, FAT-H23+LD2/4; type: binding, human; conditions: 30 µM FAT-H23 + 10 µM LD2/4
Description: as §2

[3] = test system: FAT-H14-23 (I936A, K955A, R962A, I998A, H1025A, K1032A); assay: Fluorescence anisotropy binding to FAT-H14-23 mutant; set-up: species or system human; conditions: both sites mutated
Text: Expression plasmids for FAT (hFAK904-1052 WT and mutants H14, H23 and H14-23), Vin-FL (hVinculin1-1066) and Vin-T (hVinculin891-1066) were ordered from GenScript in the pET28(+) vector, adding a TEV cleavable N-terminal 6xHis tag to the expressed proteins. Mutant FAT-H14 contains the mutations I936A, H1025A, K1032A; FAT-H23 contains the mutations K955A, R962A, I998A and FAT-14-23 contains the combined mutations I936A, K955A, R962A, I998A, H1025A, K1032A. All plasmids were introduced into E.coli strain BL21(DE3) for expression. Cells were grown in LB media, induced with 1 mM IPTG at an OD (600 nm) of 0.6 and grown over night at 20 °C. […]
as §1

Vin-T = assay: svAUC peak integration, Vin-T+LD2/4; type: binding, human; conditions: 30 µM Vin-T + 10 µM LD2/4
Description: as §2

FAT-H14 and Vin-T = assay: svAUC peak integration, FAT-H14+LD2/4+Vin-T; type: binding, human; conditions: 30 µM FAT-H14 + 10 µM LD2/4 + 30 µM Vin-T
Description: as §2

[4] = 30 µM FAT-WT + 10 µM LD2/4, 20 °C, 280 nm
[5] = 30 µM FAT-WT + 10 µM LD2/4 + 30 µM Vin-T

SNLSELDRLLLELNAVQHNGSGSGGSGGSGGSGGSGGSGGSGGSGGSATRELDELMASLSD [LD2/4]
His-FAT-H14 pulled down with GST-Vin-T [1]: only pulled down in the presence of the LD2/4 peptide
increase of affinity for FAT by presence of both LD motifs [2]: approximately 15 fold
c(total) (FAT-WT; 30 µM FAT-WT + 10 µM LD2/4): 0.58
c(Peak 1) [~ 1 s(S)] (FAT-WT; [4]): 0.06
c(Peak 2) [1-2 s(S)] (FAT-WT; [4]): 0.37
c(Peak 3) [ >2 s(S)] (FAT-WT; 30 µM FAT-WT + 10 µM LD2/4, ~2.4 S peak, absence of Vin-T): 0.15
c(Peak 2) [1-2 s(S)] (FAT-WT and Vin-T; [5]): 0.68
c(total) (FAT-WT and Vin-T; [5]): 1.08
c(Peak 3) [ >2 s(S)] (FAT-WT and Vin-T; 30 µM FAT-WT + 10 µM LD2/4 + 30 µM Vin-T, ~2.4 S peak): 0.40
amount (c) of tripartite FAT:LD2/4:Vin-T complex (FAT-WT and Vin-T; difference of 2.4 S peak in presence and absence of Vin-T, FAT-WT): ≈ 0.25
c(Peak 1) [~ 1 s(S)] (FAT-H14): 0.11
c(Peak 2) [1-2 s(S)] (FAT-H14): 0.45
c(Peak 3) [ >2 s(S)] (FAT-H14): 0.05
c(total) (FAT-H14): 0.61
c(Peak 1) [~ 1 s(S)] (FAT-H23 and Vin-T): 0.08
c(Peak 2) [1-2 s(S)] (FAT-H23 and Vin-T): 0.80
c(total) (FAT-H23 and Vin-T): 1.18
c(Peak 3) [ >2 s(S)] (FAT-H23 and Vin-T; ~2.3 S peak): 0.30 and ≈ 0.30
c(Peak 1) [~ 1 s(S)] (FAT-H23): 0.11
c(Peak 2) [1-2 s(S)] (FAT-H23): 0.45
c(Peak 3) [ >2 s(S)] (FAT-H23): 0.03
c(total) (FAT-H23): 0.59
binding to FAT-H14-23, in words [3]: no significant binding
c(Peak 1) [~ 1 s(S)] (Vin-T): 0.18
c(Peak 2) [1-2 s(S)] (Vin-T): 0.59
c(total) (Vin-T): 0.77
c(Peak 2) [1-2 s(S)] (FAT-H14 and Vin-T): 0.57
c(total) (FAT-H14 and Vin-T): 1.09
c(Peak 3) [ >2 s(S)] (FAT-H14 and Vin-T; 2.4 S peak): 0.52
